Laboratory results published in ChEMBL document CHEMBL1201862, “PubChem BioAssay data set” (2004).
Active and inactive are the calls of the source.

What was measured:
[1] = optical artefact potency, substrate without enzyme – biochemical, fluorescence intensity, triplicate, artefact control for kallikrein-7 zymogen activator project, dose response (AID 720493)
Kallikrein-7 = Kallikrein-7 (Homo sapiens, UniProt P49862); test: Fluorescence Intensity-based biochemical primary high throughput dose response assay to identify activators of kallikrein-7 (K7) zymogen.
Kallikrein-7, sequence (P49862 whole entry, the tested form may be a part): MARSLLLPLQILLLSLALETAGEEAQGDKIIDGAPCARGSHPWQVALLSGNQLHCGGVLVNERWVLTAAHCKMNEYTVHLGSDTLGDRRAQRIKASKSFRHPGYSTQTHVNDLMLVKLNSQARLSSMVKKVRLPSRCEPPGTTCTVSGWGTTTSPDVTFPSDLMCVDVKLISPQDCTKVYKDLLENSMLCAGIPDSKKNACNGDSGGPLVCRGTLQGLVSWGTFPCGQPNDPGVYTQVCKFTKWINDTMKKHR

[2] = blockers of HIV-1 envelope-mediated cell-cell fusion – cherry-pick, dose response (AID 652057); type: functional, cell-based
Jurkat = test: blockers of NF-kB activation in T cells – Jurkat, luciferase reporter, luminescence, B- and T-cell, dose response (AID 489004); type: functional, cell-based; details: Homo sapiens;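 further: NF-kB luciferase reporter Jurkat cells stimulated with PMA plus ionomycin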
[3] = HEK-293T viability loss, compound-treated – cell-based, uHTS hits, cytotoxicity control for B/T-cell NF-kB inhibitor project, dose response (AID 489019); type: functional;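 further: IC50 reflects cytotoxicity as loss of cell viability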
[4] = off-target signal loss in HeLa-CEM21 co-culture – HeLa F-luc CTL cells, cherry-picked, counter-screen for HIV-1 Env fusion inhibitor project, dose response (AID 652040); type: functional, cell-based;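 further: potency for signal decrease marking cytotoxic or nonspecific inhibition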
[5] = blockers of HIV-1 ZM109 envelope-driven cell-cell fusion – HeLa effector, CEM target cells, luciferase, cherry-pick, dose response (AID 652058); type: functional, cell-based;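 further: luciferase signal from HIV-1 Env mediated cell-cell fusion of effector and target cells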
cells [6] = type: functional, cell-based; details: HEK-CNG
Galanin receptor type 3 = Galanin receptor type 3 (Homo sapiens, UniProt O60755); test: Fluorescence-based cell-based primary high throughput dose response assay to identify antagonists of the Galanin Receptor 3 (GalR3).; type: functional
Galanin receptor type 3, sequence (O60755 whole entry, the tested form may be a part): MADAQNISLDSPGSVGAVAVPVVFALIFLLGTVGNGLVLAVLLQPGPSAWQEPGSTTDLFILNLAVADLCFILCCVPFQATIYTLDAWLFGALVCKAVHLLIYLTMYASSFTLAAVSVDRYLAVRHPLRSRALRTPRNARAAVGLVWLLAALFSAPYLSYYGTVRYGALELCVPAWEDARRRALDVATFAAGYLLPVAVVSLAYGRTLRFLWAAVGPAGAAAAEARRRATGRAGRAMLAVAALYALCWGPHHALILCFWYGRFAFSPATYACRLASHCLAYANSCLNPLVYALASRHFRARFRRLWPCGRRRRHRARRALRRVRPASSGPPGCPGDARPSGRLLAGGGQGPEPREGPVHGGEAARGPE

[7] = HIV-1 AD8 envelope cell-cell fusion blockers – cherry-pick, dose response (AID 652062); type: functional, cell-based;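 further: luciferase signal from cell-cell fusion driven by HIV-1 clade B AD8 Env; potency is for inhibitors of fusion seen as a drop in luminescence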
[8] = reduction of Shn3 3'UTR-driven luciferase in osteoblasts – cell-based, Clone20 osteoblasts, firefly luciferase, cherry-picked, dose response (AID 624132); type: functional;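 further: firefly luciferase luminescence from reporter carrying the Shn3 3'UTR in osteoblasts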
Cytochrome P450 3A4 = Cytochrome P450 3A4 (Homo sapiens, UniProt P08684);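 further: CYP3A4 tested as one member of a cytochrome P450 panel screen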
Cytochrome P450 3A4, sequence (P08684 whole entry): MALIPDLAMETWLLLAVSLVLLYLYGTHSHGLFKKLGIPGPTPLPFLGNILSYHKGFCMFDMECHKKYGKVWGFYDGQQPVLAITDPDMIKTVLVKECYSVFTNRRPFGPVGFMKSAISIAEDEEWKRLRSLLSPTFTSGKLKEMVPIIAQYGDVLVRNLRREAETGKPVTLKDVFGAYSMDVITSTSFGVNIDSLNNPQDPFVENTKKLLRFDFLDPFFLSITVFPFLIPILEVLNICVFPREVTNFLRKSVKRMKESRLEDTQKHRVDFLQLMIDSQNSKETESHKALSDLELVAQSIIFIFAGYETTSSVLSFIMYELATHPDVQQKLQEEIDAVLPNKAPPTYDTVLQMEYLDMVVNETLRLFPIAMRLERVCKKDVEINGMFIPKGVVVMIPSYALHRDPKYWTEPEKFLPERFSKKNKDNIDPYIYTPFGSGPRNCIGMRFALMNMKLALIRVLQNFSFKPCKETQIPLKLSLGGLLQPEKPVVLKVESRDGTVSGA

[9] = non-specific 3'UTR reporter inhibition in Clone20-Shn3RL – cell-based, Renilla luciferase, cherry-picked, counter-screen for Shn3 inhibitor project, dose response (AID 624133); type: functional
INS1 = test: INS-1E survival protection against cytokine death – cell-based, luminescence, retest, dose response (AID 449756); type: functional; details: Rattus norvegicus;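 further: cell death triggered by IL-1 beta plus TNF-alpha plus IFN-gamma mixture; protective hits raise ATP signal compared with cytokine alone wells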
[10] = Shn3 3'UTR reporter signal decrease – cell-based, Clone20 osteoblasts, firefly luciferase, cherry-pick, set 2, Schnurri-3 inhibitor project, dose response (AID 720490); type: functional;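 further: actives lower the luminescence signal as inhibitors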
[11] = loss of viability in HepG2 cells – cell-based, CellTiter-Glo, cherry-picked, cytotoxicity control for Shn3 inhibitor project, dose response (AID 624134); type: functional
[12] = EF1alpha-driven Renilla reporter with control 3'UTR suppression – Clone20-Shn3RL cells, dual-Glo, cherry-pick, set 2, counter-screen for Shn3 3'UTR targeting project, dose response (AID 720724); type: functional, cell-based; details: Dual-Go Shn3RL
cells [13] = type: functional, cell-based
[14] = viability loss in HepG2 hepatoma cells – cell-based, ATP luminescence, cherry-pick, activator set 2, cytotoxicity control, dose response (AID 1053143); type: functional
[15] = Luminescence Cell-Based Dose Confirmation HTS to Identify Inhibitors of Platelet Dense Granule Release. [Related pubchem assays: 1663 (Primary HTS), 1678 (Summary of Project)]; type: functional
[16] = target: T1, Trace amine-associated receptor 1 (Homo sapiens, UniProt Q96RJ0); test: Counterscreen for agonists of the human trace amine associated receptor 1 (hTAAR1): Fluorescence-based cell-based high throughput dose response assay to identify hTAAR1 agonist that also desensitize TAAR1 receptor response.; type: functional
T1 sequence (Q96RJ0 whole entry): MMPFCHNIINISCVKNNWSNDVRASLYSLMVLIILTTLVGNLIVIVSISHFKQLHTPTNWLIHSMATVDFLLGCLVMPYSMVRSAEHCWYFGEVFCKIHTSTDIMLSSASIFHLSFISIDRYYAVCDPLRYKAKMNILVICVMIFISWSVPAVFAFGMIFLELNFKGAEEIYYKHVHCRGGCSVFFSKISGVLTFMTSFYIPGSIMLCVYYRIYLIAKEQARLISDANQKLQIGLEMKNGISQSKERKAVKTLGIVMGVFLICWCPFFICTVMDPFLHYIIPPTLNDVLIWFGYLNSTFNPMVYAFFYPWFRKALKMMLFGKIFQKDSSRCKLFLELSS

cells [17] = type: functional, cell-based; remark: listed apart in the source
[18] = target: Dual specificity tyrosine-phosphorylation-regulated kinase 1A (Rattus norvegicus, UniProt Q63470); type: biochemical, Homo sapiens
[19] = target: Luciferin 4-monooxygenase (Photinus pyralis, UniProt P08659); test: inhibition of purified Photinus pyralis luciferase – biochemical, luminescence, dose response (AID 1891)
Luciferin 4-monooxygenase, sequence (P08659 whole entry): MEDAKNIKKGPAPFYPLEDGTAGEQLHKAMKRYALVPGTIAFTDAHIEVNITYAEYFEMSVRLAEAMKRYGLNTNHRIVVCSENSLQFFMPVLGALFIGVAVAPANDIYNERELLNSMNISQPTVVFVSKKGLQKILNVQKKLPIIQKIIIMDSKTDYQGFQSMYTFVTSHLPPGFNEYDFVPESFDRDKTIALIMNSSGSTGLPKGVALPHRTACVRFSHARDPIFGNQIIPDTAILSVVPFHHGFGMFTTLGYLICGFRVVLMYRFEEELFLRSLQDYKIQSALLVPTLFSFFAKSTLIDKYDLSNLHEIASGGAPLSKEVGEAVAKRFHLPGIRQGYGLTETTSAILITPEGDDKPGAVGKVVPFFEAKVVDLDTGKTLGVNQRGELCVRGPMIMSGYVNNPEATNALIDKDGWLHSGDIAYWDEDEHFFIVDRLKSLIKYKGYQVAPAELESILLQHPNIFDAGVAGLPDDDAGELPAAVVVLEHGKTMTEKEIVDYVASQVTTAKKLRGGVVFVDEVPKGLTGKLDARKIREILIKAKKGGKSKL

[20] = target: T1, Trace amine-associated receptor 1; test: Fluorescence-based cell-based high throughput dose response assay to identify agonists of the human trace amine associated receptor 1 (TAAR1).; type: functional
[21] = OVCAR4 cell viability loss – plate reader, dry powder, SA11, cytotoxicity control for PAX8 inhibitor project, dose response (AID 743150); type: functional, cell-based; details: OVCAR-4
[22] = COV434 cell viability loss – plate reader, dry powder, SA7, cytotoxicity control for PAX8 inhibitor project, dose response (AID 743145); type: functional, cell-based
[23] = PAX8-dependent cell viability loss – plate reader, dry powder, dose response (AID 743049); type: functional, cell-based
[24] = viability loss in HEK293T cells – cell-based, cherry-picks, cytotoxicity control for HIV Vif inhibitor project, dose response (AID 652208); type: functional
[25] = toxicity toward immortalized ovarian surface epithelium – cell-based, plate reader, dry powder samples, cytotoxicity control for PAX8 inhibitor project, dose response (AID 743045); type: functional
[26] = general cell-killing toxicity readout – plate reader, dry powder samples, cytotoxicity control for PAX8 inhibitor project, dose response (AID 743021); type: functional, cell-based
[27] = IGROV1 cell killing – plate reader, dry powder samples, PAX8 inhibitor project, dose response (AID 743043); type: functional, cell-based; details: IGROV-1
Paired box protein Pax-8 = Paired box protein Pax-8 (Homo sapiens, UniProt Q06710); test: PAX8 transcriptional activity inhibition in RMG-I – RMG-I cells, luciferase, cherry-pick, dose response (AID 687027); type: functional, cell-based;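 further: luciferase reporter driven by Pax8 target thyroperoxidase promoter measured by SteadyGlo luminescence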
Paired box protein Pax-8, sequence (Q06710 whole entry): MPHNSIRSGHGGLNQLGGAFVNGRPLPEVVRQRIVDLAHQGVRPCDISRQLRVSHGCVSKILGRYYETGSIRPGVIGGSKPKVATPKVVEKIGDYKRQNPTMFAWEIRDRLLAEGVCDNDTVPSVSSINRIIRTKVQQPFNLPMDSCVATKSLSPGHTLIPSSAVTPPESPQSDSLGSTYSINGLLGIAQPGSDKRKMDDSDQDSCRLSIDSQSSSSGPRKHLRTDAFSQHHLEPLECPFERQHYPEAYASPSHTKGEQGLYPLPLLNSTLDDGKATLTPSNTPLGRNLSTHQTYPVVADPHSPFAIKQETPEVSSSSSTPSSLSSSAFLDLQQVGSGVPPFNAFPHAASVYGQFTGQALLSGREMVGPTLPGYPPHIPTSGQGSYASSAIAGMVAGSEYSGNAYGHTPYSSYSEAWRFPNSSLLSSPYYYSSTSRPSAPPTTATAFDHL

[28] = COV362 cell viability loss – plate reader, dry powder, SA12, cytotoxicity control for PAX8 inhibitor project, dose response (AID 743144); type: functional, cell-based
cells [29] = type: functional, cell-based; remark: listed apart in the source
[30] = OV-90 cell viability loss – plate reader, dry powder, SA8, PAX8 inhibitor project, dose response (AID 743149); type: functional, cell-based
cells [31] = type: functional, cell-based; remark: listed apart in the source
[32] = OVCAR-3 cell viability loss – plate reader, dry powder samples, PAX8 inhibitor project, dose response (AID 743044); type: functional, cell-based
cells [33] = details: A549
HEK293 = test: viability loss in HEK293T cells – cell-based, ATP luminescence, cherry-pick samples, cytotoxicity control, dose response (AID 687005); type: functional; details: Homo sapiens;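 further: cells exposed to compound for 48 hours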
HeLa = test: viability loss in HeLa cells – cell-based, ATP luminescence, cherry-pick samples, cytotoxicity control, dose response (AID 687004); type: functional; details: Homo sapiens
[34] = HEK293 Cytotoxicity Assay Measured in Cell-Based System Using Plate Reader - 7071-01_Inhibitor_Dose_CherryPick_Activity_Set2.; type: functional
[35] = Late stage assay provider results from the probe development effort to identify inhibitors of the Plasmodium falciparum M17 Leucine Aminopeptidase (M17LAP): radiolabel-based cell-based dose response assay to identify compounds that inhibit P. falciparum growth in RBCs Set 2.; type: functional
[36] = viability loss in HepG2 hepatoma cells – cell-based, cherry-picks, set 5, cytotoxicity control, dose response (AID 1053118); type: functional
[37] = T. cruzi growth inhibition in host cells, dose response, cell-based, plate reader, dry powder, set 2 (AID 652275); type: functional
[38] = viability loss in MITF-independent A375 cells – cell-based, CellTiter-Glo luminescence, dry powder, set 2, counter-screen for MITF inhibitor project, dose response (AID 624489); type: functional; details: A-375;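 further: actives are compounds lowering A375 viability meaning general cytotoxicity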
[39] = cytotoxicity in MITF-independent A375 cells – cell-based, CellTiter-Glo luminescence, dry powder, set 4, counter-screen for MITF inhibitor project, dose response (AID 624364); type: functional; details: A-375;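 further: A375 melanoma cells are MITF independent so this is a counter screen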
[40] = Late stage assay provider results from the probe development effort to identify selective inhibitors of heat shock protein 90 (HSP90): Absorbance-based cell proliferation assay in SKBR3 cells.; type: functional; details: SK-BR-3
[41] = Late stage assay provider results from the probe development effort to identify selective inhibitors of heat shock protein 90 (HSP90): Absorbance-based cell proliferation assay in MCF7 cells.; type: functional
[42] = mouse embryonic fibroblast toxicity – cell-based, plate reader, dry powder, set 2, cytotoxicity control, dose response (AID 652280); type: functional; details: NIH3T3
[43] = viability loss in CEM21 cells – cell-based, plate reader, dry powder, cytotoxicity control, dose response (AID 687026); type: functional
[44] = inhibition of Env-driven cell fusion – HIV entry, plate reader, dry powder, dose response (AID 687023); type: functional, cell-based

COc1ccc(-c2cc(-c3ccccc3)n3ncnc3n2)cc1
EC50 [1]: > 7.72 µM (active) | EC50 (Kallikrein-7): > 69.5 µM (inactive)

Cc1cc(CSc2ccccc2)ccc1NC(=O)c1ccc(CN2CCOCC2)cc1
AC50 [2]: 2.17 µM (active) | IC50 (Jurkat): > 80 µM (inactive) | IC50 [3]: > 80 µM (inactive) | AC50 [4]: 1.75 µM (active) | AC50 [5]: 7.59 µM (active) | EC50 (cells [6]): > 29.9 µM (inactive) | IC50 (Galanin receptor type 3): 0.322 µM (active) | AC50 [7]: 5.87 µM (active)

Cc1ccc(-c2csc(N3CCC(NS(=O)(=O)c4ccc5c(c4)OCCO5)CC3)n2)cc1
AC50 [8]: 2.15 µM (active) | AC50 (Cytochrome P450 3A4): inconclusive | AC50 [9]: 15 µM (active) | AC50 (INS1): 5.51 µM (active) | AC50 [10]: 3.03 µM (active) | AC50 [11]: > 70 µM (inactive) | AC50 [12]: 21.6 µM (active)

Nc1nc(Nc2ccccc2)nc2ccccc12
IC50 (cells [13]): > 29.9 µM (inactive) | AC50 [14]: 26 µM (active) | EC50 [15]: 2.06 µM (active) | IC50 [16]: 0.444 µM (active) | EC50 (cells [17]): > 29.9 µM (inactive) | AC50 [18]: 4.92 µM (active) | EC50 [19]: 1.25 µM (active) | EC50 [20]: 0.16 µM (active)

COc1ccc(-c2cc(C(F)(F)F)nc(S(=O)(=O)CCCC(=O)Nc3cc(C)on3)n2)cc1OC
AC50 [21]: 27.7 µM (active) | AC50 [22]: 15.2 µM (active) | AC50 [23]: 16.2 µM (active) | AC50 [24]: 13.7 µM (active) | AC50 [25]: 29.4 µM (active) | AC50 [26]: 23.1 µM (active) | AC50 [27]: 13.4 µM (active) | AC50 (Paired box protein Pax-8): 9.94 µM (active) | AC50 [28]: 21.2 µM (active) | EC50 (cells [29]): > 350 µM (not active) | AC50 [30]: 30.1 µM (active) | EC50 (cells [31]): > 350 µM (not active) | AC50 [32]: 20.7 µM (active)

N#C/C(=C\c1ccco1)C(=O)Nc1cccc2ncccc12
AC50 (cells [33]): > 52 µM (inactive)

COc1ccccc1C(=O)Nc1ccc2c(c1)C(=O)N(C)C[C@H](OC)[C@@H](C)CN(CC1CC1)[C@@H](C)CO2
AC50 (HEK293): 24.1 µM (active) | AC50 (HeLa): > 52 µM (inactive) | AC50 [34]: 24.1 µM (active)

Cc1ccc(CC(=O)NO)cc1
IC50 [35]: 16.3 µM (inactive)

N#C[C@H]1[C@@H](c2ccccc2C2=CCCCC2)[C@@H](CO)N1S(=O)(=O)c1ccccc1
AC50 [36]: > 47 µM (inactive)

CC(c1ccc(Cl)cc1)N(C)C[C@@H]1CN(C(C)C)C(=O)c2cccc(NC(=O)c3ccncc3)c2O1 (some centres not stated)
AC50 [37]: 0.0548 µM (active)

CN1CCN(C2=C(NS(=O)(=O)c3ccc(Br)cc3)C(=O)c3ccccc3C2=O)CC1
AC50 [38]: > 70 µM (inactive) | AC50 [39]: > 70 µM (inactive)

COc1ccc(N/C=C2\C(=O)OC(=O)c3ccccc32)cc1
IC50 [40]: > 100 µM (inactive) | IC50 [41]: > 100 µM (inactive)

Cc1cccc(-c2ccc([C@H]3[C@H](CO)N4CCCCN(Cc5ccncc5)C[C@@H]34)cc2)c1
AC50 [42]: 8.54 µM (active)

Cc1noc(C)c1S(=O)(=O)Nc1cccc2c1O[C@H](CN(C)Cc1ccc(C(F)(F)F)cc1)[C@H](C)CN([C@@H](C)CO)C2=O
AC50 [43]: > 70 µM (inactive) | AC50 [44]: 10.6 µM (active)
